Data on 5 compounds can be found in US20130324520A1, “RXRG MODULATORS FOR THE TREATMENT OF CANCER” (SLOAN-KETTERING INSTITUTE FOR CANCER RESEARCH, priority 2011, published 2013).

In one series the test system is H1650. Put plainly: Drug treatment on cancer cell lines, cell counting. As to conditions: EGFR mutated lung cancer. It is filed as cell-based. From the text:
(§1) DMSO was used for control.

A further series concerns H1755. Put plainly: Drug treatment on cancer cell lines, cell counting. It is filed as cell-based. As to conditions: UVI3003 10 uM (FIG. 23).
Text: as §1

Series [1] has as its system H1975. Nature of the series: Drug treatment on cancer cell lines, cell counting. It is filed as cell-based. As to conditions: EGFR mutated lung cancer.
Text: as §1

In another series the test system is H3255. Nature of the series: Drug treatment on cancer cell lines, cell counting. The series is classed as cell-based. As to conditions: EGFR mutated lung cancer.
Text: as §1

For the next series, the system named is H820. Nature of the series: Drug treatment on cancer cell lines, cell counting. The series is classed as cell-based. As to conditions: EGFR mutated lung cancer.
Text: as §1

The next series has as its system MDA-MB-468. Put plainly: Drug treatment on cancer cell lines, cell counting. It is filed as cell-based. As to conditions: UVI3003 10 uM (FIG. 23).
Text: as §1

In the next series the test system is PC930201. Put plainly: Drug treatment on cancer cell lines, cell counting. It is filed as cell-based. As to conditions: KRAS mutated pancreatic cancer (PC0201).
Text: as §1

For series [2], the system named is PC931019. Nature of the series: Drug treatment on cancer cell lines, cell counting. The series is classed as cell-based. As to conditions: for cell growth: KRAS mutated pancreatic cancer (PC1019); for growth inhibition, single agent / effect of combination with HX531 on growth: day 9; for growth inhibition, single agent: 6 uM HX531, 10 uM PD98059, 100 nM PD0325901; for effect of combination with HX531 on growth: MEK inhibitor plus 6 uM HX531.
Text: as §1

The test system of a further series is PC941102. Nature of the series: Drug treatment on cancer cell lines, cell counting. The series is classed as cell-based. As to conditions: KRAS mutated pancreatic cancer (PC1102).
Text: as §1

In a further series the test system is Saos2. Put plainly: Drug treatment on cancer cell lines, cell counting. It is filed as cell-based. As to conditions: UVI3003 10 uM (FIG. 23).
Text: as §1

The next series has as its system normal fibroblasts WI38. Nature of the series: Drug treatment on cell lines, cell counting. It is filed as cell-based. As to conditions: UVI3003 10 uM (FIG. 23).
Text: as §1

Series [3] has as its system RB1 mutated retinoblastoma. Nature of the series: RXRG ligands on retinoblastoma cell growth. The series is classed as cell-based. The method, then:
(§2) Colon, lung, pancreatic cancer, retinoblastoma and other cell lines were cultured in culture medium consisting of IMDM (Medium Lab, MSKCC, NY) with 10% FBS (SH3008803, HyClone, Thermo Scientific), 2 mM glutamine (Invitrogen), 55 μM beta-mercaptoethanol (Invitrogen), 1% Penicillin/streptomycin (Invitrogen), and 2.5 μg/ml Plasmocin (Invivogen), at 37° C. in a humidified incubator with 5% CO2. Melanoma cell lines were culture in RPMI with above additives.
(§3) Colon, lung, pancreatic, breast, prostate cancer cell lines and other cancer cell lines were cultured in 10 cm dishes or 24 well plates with complete IMDM or RPMI (for melanoma) with 30-50% confluence. […] DMSO was used for control. After 3-6 days treatment, cells were collected and counted with trypan blue. Dose-effectiveness curves were generated with series dilution of compounds in medium for treatment of cells.

Series [4] relates to EGFR and KRAS activated NSCLC, pancreatic, and colon cancers. Put plainly: Drug treatment on cancer cell lines, cell counting (group of lines). As to conditions: for cell growth / proliferation: KRAS or EGFR mutant colon, NSCLC, pancreatic, hepatoma cells, concentration not given. The series is classed as cell-based.
Text: as §1

Series [5] deals with PTEN mutated prostate cancer, small cell lung cancer, and breast cancer. Described as above. The series is classed as cell-based. As to conditions: PTEN mutant lines as a group.
Text: as §1

The test system of another series is SCLC. The description is as above. The series is classed as cell-based. As to conditions: UVI3003 10 uM (FIG. 23); some PTEN mutated SCLC.
Text: as §1

Series [6] has as its system H1975. Nature of the series: Cell cycle analysis. The series is classed as cell-based. As to conditions: EGFR mutant NSCLC, day 3.
The subject of series [7] is PC931019. Put plainly: Cell cycle analysis. The series is classed as cell-based. As to conditions: KRAS mutant pancreatic cancer, day 3. The method, then:
After drug treatment, cells were collected for cell cycle analysis, RNA isolation, quantitative PCR, western blot, and immunofluorescence. For cell cycle analysis, retinoblastoma, neuroblastoma, lung, pancreatic, and colon cancer cells were collected and dissociated on days 3, 5, 7, 9, 11, and 16 after treatment. Cells were fixed by 70% cold ethanol alcohol while vortex, and put in −20° C. for storage. […] At 24 hours after treatment, 4 ug/ml Aphidicolin was added to cells with compounds for 24 hr. Aphidicolin was removed by centrifugation and PBS wash, and then added to new wells with fresh medium and compounds. Cells were collected and fixed before addition of aphidicolin, immediately after removal of aphidicolin, and every two hours thereafter until 16-18 hours.
The tubes with cells were taken out of the freezer and alcohol was removed by centrifugation. 150 ul of 0.06 mg/ml propidium iodide with 0.1% NF40 was added to the cells, and then 100 ul of 2 mg/ml of RNase was added to the cells. These were mixed well and incubated at 37° C. for 30 min. The cell ploidy according to DNA contents were measured in FACSCalibur with FL3-Width and FL3-Height as the parameter. Flowjo was used for analysis of the cell cycle changes.

A further series concerns A549. Put plainly: Drug treatment on cancer cell lines, cell counting. It is filed as cell-based. As to conditions: for effect of combination with HX531 on growth: MEK inhibitor plus HX531; for growth inhibition, single agent: day 3, 6 uM HX531, 10 uM PD98059, 100 nM PD0325901.
Text: as §1

The test system of another series is HCT116. Put plainly: Drug treatment on cancer cell lines, cell counting. The series is classed as cell-based. As to conditions: day 3; for growth inhibition, single agent: 6 uM HX531, 10 uM PD98059, 100 nM PD0325901; for effect of combination with HX531 on growth: MEK inhibitor plus 6 uM HX531.
Text: as §1

The next series concerns RB177. Nature of the series: RXRG ligands on retinoblastoma cell growth. It is filed as cell-based. As to the method:
as §2, §3

The conditions of series [8]: patients; cited from earlier work.

SMILES strings stand for the structures. “Also recorded” adds a separate entry of the source.

For `CCCCCOc1cc2c(cc1-c1cc(/C=C/C(=O)O)ccc1O)C(C)(C)CCC2(C)C` [UVI3003], the cell growth entry in the series with H1650, with H1975 [1], in the series with H3255, in the series with H820, in the series with PC930201 and in the series on PC931019 [2] was “sensitive” throughout. Besides, the results for the cell growth entry (with PC941102; in [5]) were “sensitive” and “suppress the growth”, respectively. The “relative cell number after treatment” value in the series on H1755 was “sensitive”; in the series on MDA-MB-468, “sensitive”; in the series on Saos2, “not sensitive”; in the series with normal fibroblasts WI38 it was “not sensitive”; in series [3] (UVI3003 10 uM (FIG. 23)) it was “not sensitive”; in series [4] (UVI3003 10 uM (FIG. 23), incl. gastric cancer), “sensitive”. The “relative cell number after treatment” value in the series with SCLC is “sensitive”. In addition, the “cell growth / proliferation” value in series [4] is “efficiently suppress”. Besides, the “cell cycle, G1-S transition” value with H1975 [6] is on record as “inhibited G1-S transition”; in the series with PC931019 [7] it was “similarly sensitive; also recorded: inhibited G1-S transition”.

Take `CCCCCCOc1cc2c(cc1N(C)c1ncc(C(=O)O)cn1)C(C)(C)CCC2(C)C` [PA452]: the cell growth entry in the series on H1650, in the series with H1975 [1], in the series on H3255, in the series on H820, in the series on PC930201 and in the series on PC931019 [2] was “sensitive” each time. Further, the cell growth entry in the series on PC941102 is “sensitive”; in series [5], “suppress the growth”. In series [4], the “cell growth / proliferation” value is recorded as “efficiently suppress”.

With `COc1cccc(-c2cc(=O)c3ccccc3o2)c1N` [PD98059], the “effect of combination with HX531 on growth” value in the series with A549 is “synergistic effects”; in the series with HCT116, “Synergistic effects”; in the series on PC931019 [2], “same synergistic effects”. Moreover, the “growth inhibition, single agent” value in the series on A549 is “moderate growth inhibition”; in the series with HCT116, “moderate growth inhibition”; with PC931019 [2], “growth inhibition”.

For the compound `CC1=C(/C=C/C(C)=C\C=C\C(C)=C\C(=O)O)C(C)(C)CCC1` [9 cis RA, 9-cis-Retinoic acid], the retinoblastoma cell growth result in series [3] (in vitro) is on record as “suppressed retinoblastoma cell growth”. The cell growth entry in the series on RB177 is reported as “suppressed cell growth”.

Take `O=C(NOC[C@H](O)CO)c1ccc(F)c(F)c1Nc1ccc(I)cc1F` [PD0325901]: the “effect of combination with HX531 on growth” value was “synergistic effects” in the series with A549, “Synergistic effects” with HCT116 and “same synergistic effects” in the series with PC931019 [2]. Moreover, the “growth inhibition, single agent” value was “moderate growth inhibition” with A549, “moderate growth inhibition” in the series with HCT116 and “growth inhibition” in the series with PC931019 [2]. Besides, the “outcome of clinical trial (toxicity)” value in [8] is on record as “terminated because of high toxicity in patients”.
